Tests used:
Format in all cases: functional
[1] = system: T47D; assay: Growth inhibition of human T47D cells at 10^-5 M incubated for 48 hrs by sulforhodamine B assay relative to control; settings: read-out: GI
[2] = system: MCF7; assay: Growth inhibition of human MCF7 cells at 10^-5 M incubated for 48 hrs by sulforhodamine B assay relative to control; settings: MCF7, 48 h, read-out: GI
[3] = system: MDA-MB-468; assay: Growth inhibition of human MDA-MB-468 cells at 10^-5 M incubated for 48 hrs by sulforhodamine B assay relative to control; settings: MDA-MB-468, 48 h, read-out: GI

With `O=C1/C(=C\c2cccn2Cc2ccccc2)c2ccccc2N1c1c(Cl)cccc1Cl` the inhibition of growth at 10 µM [1] was 100%, the inhibition of growth at 10 µM [2] was 93% and the inhibition of growth at 10 µM [3] was 100%.
